The text below walks through data of US11672786B2, “Methods of treating diseases associated with repeat instability” (The Hospital for Sick Children, priority 2016, dated 2023).

The subject of data set [1] is HT1080-(CAG)850 cells. The data set is described as follows: cellular distribution by confocal microscopy. Format: cell-based, human. To be noted: 50-μM NBD-labeled NA, 48 hr. The protocol: Scale bar represents 20 μm. […] The cell viability was estimated with WST-1 assays. Values represent the means of three independent measures±SD. […] Error bars indicate the SD of triplicate experiments. […] The dashed line indicates the peak CAG size. Allele lengths are grouped in bins spanning 10 repeats. More than 230 alleles were sized per group.
HT1080-(CAG)850 cells were incubated with 50-μM NBD-labeled NA for 48 hr and Cell Light Plasma Membrane-RFP, BacMam 2.0 (Life Technologies, Carlsbad, Calif.), then fixed for 15 min at RT with 4% paraformaldehyde and washed 2 times for 10 min in phosphate buffered saline (PBS). Cells were mounted with Vectashield hard-set mounting media that contains DAPI (Vector Laboratories, Burlingame, Calif.). Fluorescence images were obtained using Olympus FV1000D confocal laser scanning microscope (Olympus, Tokyo, Japan).

The subject of data set [2] is CAG expansions. To be noted: by unknown processes; cited from earlier work.

On to `Cc1ccc2ccc(NC(=O)CCN(CCCNC(=O)CCCNC(=O)CCCCCNc3ccc([N+](=O)[O-])c4nonc34)CCC(=O)NCc3ccc4ccc(=O)[nH]c4n3)nc2n1` [NBD-labeled NA, N-(4-((3-((3-((7-methyl-1,8-naphthyridin-2-yl)amino)-3-oxopropyl)(3-oxo-3-(((7-oxo-7,8-dihydro-1,8-naphthyridin-2-yl)methyl)amino)propyl)amino)propyl)amino)-4-oxobutyl)-6-((7-nitrobenzo[c][1,2,5]oxadiazol-4-yl)amino)hexanamide], for which the cellular distribution entry in data set [1] was “distributed throughout the nuclei and cytoplasm”.
Consider `CC(C)C[C@@H](/C=C/[C@H](Cc1ccccc1)C(=O)N1CCC[C@H]1C(=O)N[C@H](C(=O)N[C@@H](CCCNC(=O)OCc1ccccc1)C(=O)NC1CC(C)(C)N([O])C(C)(C)C1)C(C)C)NC(=O)OC(C)(C)C` [XJB-5-131], for which, in data set [2], the “effect on CAG expansions” value is “mildly suppress CAG expansions rather than induce contractions”.
